These results are taken from patent US9930887B2, “Compound for increasing amino acid content in plant, and use thereof” (Okayama Prefecture, priority 2011, dated 2018).

Experiment [1] relates to Arabidopsis. In kind it is in vivo, Arabidopsis thaliana.
A further experiment deals with spinach. As to the kind of experiment: Free amino acid content in spinach under cultivation temperature control. As to conditions: 28 days. In kind it is in vivo, Spinacia oleracea. The method, then:
(§1) A cultivation condition of spinach, which was a vegetable of the goosefoot family (Chenopodioideae), supplied with glutathione was examined. After spinach was seeded, sprouts germinated to a similar extent were selected, were cultivated in an incubator (light period: 14 hours/dark period: 10 hours, light intensity: about 250 μE/m^2/s), and were sampled after 28 days. As a cultivation temperature, two types of a low temperature condition LT (Low Temperature: light period 20° C./dark period 15° C.) and a high temperature condition HT (High Temperature: light period 25° C./dark period 20° C.) were set. […] Specifically, a single individual was put into each pot having about […], and 25 mL of each solution was provided to roots of each pot once a week. In the same way as Example 1, a leaf (or a terrestrial part) was measured as a sample in a cation mode and an anion mode of CE-TOFMS (capillary electrophoresis-time-of-flight mass spectrometry: Agilent CE-TOFMS system (Agilent technologies)). By comparing a detected peak with database on the basis of m/Z and a migration period, an amino acid was searched, identified, and quantified.

The test system of the next experiment is garland chrysanthemum. In words: Free amino acid content in garland chrysanthemum at various glutathione concentrations. The experiment is classed as in vivo, Chrysanthemum coronarium. To be noted: 28 days. The method, then:
An effect on amino acid contents of garland chrysanthemum which was vegetable of the composite family (Compositae), to which garland chrysanthemum glutathione having various concentrations was supplied, was examined. After garland chrysanthemum was seeded, sprouts germinated similarly were selected, were cultivated in an incubator (light period: 14 hours, 20° C./dark period: 10 hours, 15° C., light intensity: about 250 μE/m^2/s), and were sampled after 28 days. As a medium, a soil formed by placing vermiculite (Asahi industrial corporation) as a lower layer, KUREHA seedling raising soil (KUREHA CORPORATION) as a middle layer, and vermiculite (Asahi industrial corporation) as an upper layer at a ratio of 2:1:1 in lamination was used.
In this experiment, only water (Cont.), 0.1 mM, 0.2 mM, 0.5 mM, 1 mM, 2 mM, and 5 mM of oxidized glutathione (GSSG) solutions were provided to plants.

The test system of the next experiment is Japanese mustard spinach. As to conditions: 28 days. The method, then: as §1, with “As” for “A cultivation condition of spinach, which was a vegetable of the goosefoot family (Chenopodioideae), supplied with glutathione was examined. After spinach was seeded, sprouts germinated to a similar extent were selected, were cultivated in an incubator (light period: 14 hours/dark period: 10 hours, light intensity: about 250 μE/m^2/s), and were sampled after 28 days. As”

For experiment [2], the system named is Arabidopsis. In kind it is in vivo, Arabidopsis thaliana. To be noted: 1 mM GSSG, 2 mM GSH or 3 mM NH4NO3, 25 mL per pot to roots once a week.
[3] abbreviates: high temperature condition (light 25° C./dark 20° C.), 1 mM GSSG.
The mark [4] stands for this setting: low temperature condition (light 20° C./dark 15° C.), 2 mM GSH.

Read-outs that look alike come from different tables or passages of the source. Some results are limits rather than exact numbers.

Consider oxidized glutathione [GSSG], for which, in the experiment on Arabidopsis [1] (in vivo), the “asparagine content in a leaf” value is “largely increased” and the “serine content in a leaf” value is given as “remarkably increased”. In addition, in the experiment on spinach (setting [3]), the “glycine content relative to control” value is given as no less than 5 times, the “homoserine content relative to control” value is listed as no less than 5 times, the “phenylalanine content relative to control” value is no less than 5 times and the “tyrosine content relative to control” value is no less than 5 times. In the experiment on garland chrysanthemum (5 mM of GSSG), the “asparagine content, ratio to control = 1” value is given as no less than 100 times; the “glutamine content, ratio to control = 1” value is recorded as no less than 100 times; the “glycine content, ratio to control = 1” value is given as no less than 100 times; the “histidine content, ratio to control = 1” value was no less than 100 times. In the experiment with garland chrysanthemum (5 mM of GSSG), the “homoserine content, ratio to control = 1” value is on record as no less than 100 times and the “total free amino acid content, ratio to control = 1” value was 24.8 times. Moreover, the “total free amino acid content compared with control” value in the experiment with garland chrysanthemum (GSSG 0.1 mM, 25 mL per pot once a week) is reported as “decreased”. Also, the “free amino acid contents compared with total free amino acid content under control condition” value with garland chrysanthemum (GSSG 0.2 mM to 5 mM, 25 mL per pot once a week) is “increased concentration-dependently”.
Take `N[C@@H](CCC(=O)N[C@@H](CS)C(=O)NCC(=O)O)C(=O)O` [glutathione]: the “effect on amino acid contents relative to control = 1 (FIG. 8)” value in the experiment with spinach (low temperature condition (light 20° C./dark 15° C.), observed in part of amino acids) is reported as “small”. Besides, in the experiment with Japanese mustard spinach (high temperature condition (light 25° C./dark 20° C.), β-alanine, asparagine, glutamine), the “effect of increase in amino acid content relative to control = 1 (FIG. 10)” value is “observed in part of amino acids”.
Consider `N[C@@H](CCC(=O)N[C@@H](CS)C(=O)NCC(=O)O)C(=O)O` [GSH, reduced glutathione], for which, in the experiment on Arabidopsis [2] (plants after 4 weeks from seeding), the “total free amino acid content relative to control condition (only water)” value is “about 2.9 times”. In addition, the “total free amino acid content relative to control condition (only water)” value in the experiment on Arabidopsis [2] (plants after 5 weeks from seeding) is listed as “about 2.4 times”. The “asparagine content in a leaf” value in the experiment with Arabidopsis [1] (effect larger in leaf before photoirradiation (L0), 1 mM GSSG, 2 mM GSH, 3 mM NH4NO3) is reported as “largely increased”. The “serine content in a leaf” value in the experiment with Arabidopsis [1] (treatment combined with photoirradiation for 8 hours (L8, 100 μE/m^2/s), 1 mM GSSG, 2 mM GSH, 3 mM NH4NO3) is reported as “remarkably increased”. In the experiment with Japanese mustard spinach (setting [4]), the “GABA content relative to control” value was no less than 2 times, the “arginine content relative to control” value was no less than 2 times, the “asparagine content relative to control” value is recorded as no less than 2 times and the “aspartic acid content relative to control” value is reported as no less than 2 times. Moreover, in the experiment with Japanese mustard spinach (setting [4]), the “glutamine content relative to control” value is on record as no less than 2 times, the “isoleucine content relative to control” value is recorded as no less than 2 times and the “threonine content relative to control” value was no less than 2 times.
